The values that follow come from patent publication US12454546B2, “Inotodiol ester derivative precursor drug” (CARBOEXPERT INC., priority 2020, dated 2025).

The structures appear in SMILES notation. Converted amounts (≈) assume the structure as drawn.

What is called solubility is how much of the substance goes into solution per volume. High values mean a readily soluble substance, low ones a poorly soluble substance.

Data set [1] is described as follows: Solubility of inotodiol in organic solvents (Example 1, HPLC-UV-VIS of supernatant). The data set is classed as physicochemical. The conditions noted are these: 30 °C. The procedure: To measure the […] solubility of inotodiol, the following was performed.
First, 50 mg of an inotodiol sample was mixed with 1 ml of an organic solvent. Subsequently, the mixture was vortexed and placed in a water bath sonicator for 15 minutes. […]

The nature of data set [2]: physchem. Particulars: distilled water, 30 °C, thermodynamic from solid.
Description: (§1) To measure the solubility of inotodiol esters with respect to water, 5 mg of each sample was suspended in 1 mL of distilled water and treated in an ultrasonic bath for 30 minutes. The mixture was then treated in an ultrasonic bath (Power sonic 410) for 30 minutes. Then, the mixture was incubated at 30° C. for 3 hours. The supernatant obtained after centrifugation (20,000×g, 10 minutes) was filtered through a 0.45 μm membrane filter of [sequence]
Data set [3] in a line: physchem. Particulars: 30 °C, water, thermodynamic from solid.
Description: as §1

On to `CC(C)=CC[C@@H](O)[C@@H](C)[C@H]1CC[C@@]2(C)C3=C(CC[C@]12C)[C@@]1(C)CC[C@H](O)C(C)(C)[C@@H]1CC3` [Inotodiol, (3S,5R,10S,13R,14R,17R)-17-[(2S,3R)-3-hydroxy-6-methylhept-5-en-2-yl]-4,4,10,13,14-pentamethyl-2,3,5,6,7,11,12,15,16,17-decahydro-1H-cyclopenta[a]phenanthren-3-ol], for which the Inotodiol concentration turned out to be 0.976 mg/mL in data set [1] (solvent acetonitrile); 24.675 mg/mL in data set [1] (solvent dichloromethane); 25.152 mg/mL in data set [1] (solvent ethanol); 8.685 mg/mL in data set [1] (solvent ethyl acetate); 0.094 mg/mL in data set [1] (solvent hexane); 7.964 mg/mL in data set [1] (solvent methanol). In data set [1] (solvent t-butanol), the Inotodiol concentration is 26.493 mg/mL. In addition, the solubility at 3 h came to 0.0005 ± 0.00018 mg/mL (≈ 0.00113 mM) in “physchem [2]” and 31 ± 3.8 mg/mL (≈ 70 mM) in “physchem [3]”.
